Experimental findings from patent US20210078988A1, “MODULATORS OF INDOLEAMINE 2,3-DIOXYGENASE” (GLAXOSMITHKLINE INTELLECTUAL PROPERTY DEVELOPMENT LIMITED, priority 2017, published 2021) are described below.

The target of this test is T1, indoleamine 2, 3-dioxygenase (IDO1) (Homo sapiens, UniProt P14902).
T1 construct: human peripheral blood mononuclear cells (PBMC) (PB003F; host or cells: human PBMC stimulated with IFN-gamma and LPS
Description: PBMC IDO1 assay (kynurenine detection via mass spectrometry). The test is classed as cell-based. As to conditions: human PBMC stimulated with IFN-γ and LPS, 2 days, kynurenine by mass spectrometry; read-out: IDO1 PBMC pIC50 (converted). The protocol:
Compounds of the present invention were tested via high-throughput cellular assays utilizing detection of kynurenine via mass spectrometry and cytotoxicity as end-points. For the mass spectrometry and cytotoxicity assays, human peripheral blood mononuclear cells (PBMC) (PB003F; AIICells®, Alameda, Calif.) were stimulated with human interferon-γ (IFN-γ) (Sigma-Aldrich Corporation, St. Louis, Mo.) and lipopolysaccharide from Salmonella minnesota (LPS) (Invivogen, San Diego, Calif.) to induce the expression of indoleamine 2, 3-dioxygenase (IDO1). Compounds with IDO1 inhibitory properties decreased the amount of kynurenine produced by the cells via the tryptophan catabolic pathway. Cellular toxicity due to the effect of compound treatment was measured using CellTiter-Glo® reagent (CTG) (Promega Corporation, Madison, Wis.), which is based on luminescent detection of ATP, an indicator of metabolically active cells.
In preparation for the assays, test compounds were serially diluted 3-fold in DMSO from a typical top concentration of 5 mM and plated at 0.5 μL in 384-well, polystyrene, clear bottom, tissue culture treated plates with lids (Greiner Bio-One, Kremsmunster, Austria) to generate 11-point dose response curves. Low control wells (0% kynurenine or 100% cytotoxicity) contained either 0.5 μL of DMSO in the presence of unstimulated (-IFN-γ/-LPS) PBMCs for the mass spectrometry assay or 0.5 μL of DMSO in the absence of cells for the cytotoxicity assay, and high control wells (100% kynurenine or 0% cytotoxicity) contained 0.5 μL of DMSO in the presence of stimulated (+IFN-γ/+LPS) PBMCs for both the mass spectrometry and cytotoxicity assays.
Frozen stocks of PBMCs were washed and recovered in RPMI 1640 medium (Thermo Fisher Scientific, Inc., Waltham, Mass.) supplemented with 10% v/v heat-inactivated fetal bovine serum (FBS) (Thermo Fisher Scientific, Inc., Waltham, Mass.), and 1× penicillin-streptomycin antibiotic solution (Thermo Fisher Scientific, Inc., Waltham, Mass.). The cells were diluted to 1,000,000 cells/mL in the supplemented RPMI 1640 medium. 50 μL of either the cell suspension, for the mass spectrometry assay, or medium alone, for the cytotoxicity assay, were added to the low control wells, on the previously prepared 384-well compound plates, resulting in 50,000 cells/well or 0 cells/well respectively. IFN-γ and LPS were added to the remaining cell suspension at final concentrations of 100 ng/ml and 50 ng/ml respectively, and 50 μL of the stimulated cells were added to all remaining wells on the 384-well compound plates. The plates, with lids, were then placed in a 37° C., 5% CO2 humidified incubator for 2 days.
Following incubation, the 384-well plates were removed from the incubator and allowed to equilibrate to room temperature for 30 minutes. For the cytotoxicity assay, CellTiter-Glo® was prepared according to the manufacturer's instructions, and 40 μL were added to each plate well. After a twenty minute incubation at room temperature, luminescence was read on an EnVision® Multilabel Reader (PerkinElmer Inc., Waltham, Mass.). For the mass spectrometry assay, 10 μL of supernatant from each well of the compound-treated plates were added to 40 μL of acetonitrile, containing 10 μM of an internal standard for normalization, in 384-well, polypropylene, V-bottom plates (Greiner Bio-One, Kremsmunster, Austria) to extract the organic analytes. Following centrifugation at 2000 rpm for 10 minutes, 10 μL from each well of the acetonitrile extraction plates were added to 90 μL of sterile, distilled H2O in 384-well, polypropylene, V-bottom plates for analysis of kynurenine and the internal standard on the RapidFire 300 (Agilent Technologies, Santa Clara, Calif.) and 4000 QTRAP MS (SCIEX, Framingham, Mass.). MS data were integrated using Agilent Technologies' RapidFire Integrator software, and data were normalized for analysis as a ratio of kynurenine to the internal standard. […]

T1 sequence (P14902 whole entry): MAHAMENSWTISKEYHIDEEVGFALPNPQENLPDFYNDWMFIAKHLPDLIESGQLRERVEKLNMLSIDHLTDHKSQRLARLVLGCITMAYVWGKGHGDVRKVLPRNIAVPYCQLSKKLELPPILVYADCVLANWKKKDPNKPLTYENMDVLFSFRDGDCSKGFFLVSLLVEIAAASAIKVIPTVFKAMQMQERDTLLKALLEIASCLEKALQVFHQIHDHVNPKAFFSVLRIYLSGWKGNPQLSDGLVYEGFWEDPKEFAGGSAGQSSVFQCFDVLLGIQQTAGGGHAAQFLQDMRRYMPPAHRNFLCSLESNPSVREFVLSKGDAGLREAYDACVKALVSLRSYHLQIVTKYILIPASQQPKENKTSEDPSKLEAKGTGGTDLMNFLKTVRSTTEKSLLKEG

`CCc1ccc(C(=O)NC(CC2CCN(C(=O)OC(C)(C)C)CC2)C2CCCCC2)s1` (stereo not drawn) [Example 106, tert-butyl 4-(2-cyclohexyl-2-(5-ethylthiophene-2-carboxamido)ethyl)piperidine-1-carboxylate]: the IC50 was 25.1 nM. The result for `Cc1ccc(C(=O)NC(CC2CCN(C(=O)OC(C)(C)C)CC2)C2CCCCC2)s1` (stereo not drawn) [Example 80, tert-butyl 4-(2-cyclohexyl-2-(5-methylthiophene-2-carboxamido)ethyl)piperidine-1-carboxylate] reads 15.8 nM; that for `CC(C)(C)OC(=O)N1CCC(C[C@H](Nc2ncc(-c3ccccc3)o2)C2CC2)CC1` [Example 170, (S)-tert-butyl 4-(2-cyclopropyl-2-((5-phenyloxazol-2-yl)amino)ethyl)piperidine-1-carboxylate], 100 nM. With `O=C(NC(CC1CCN(C(=O)Oc2ccccc2)CC1)c1ccccc1)c1ccc(F)cc1` (stereo not drawn) [Example 121, phenyl 4-(2-(4-fluorobenzamido)-2-phenylethyl)piperidine-1-carboxylate], the IC50 was 39.8 nM. The result for `Cc1ccc(C(=O)NC(CC2CCN(C(=O)OC(C)(C)C)CC2)C2CCCC2)s1` (stereo not drawn) [Example 59, tert-butyl 4-(2-cyclopentyl-2-(5-methylthiophene-2-carboxamido)ethyl)piperidine-1-carboxylate] reads 12.6 nM; that for `CCOC(=O)N1CCC(C[C@H](NC(=O)c2ccc(Cl)cc2)c2ccccc2)CC1` [Example 81, (S)-ethyl 4-(2-(4-chlorobenzamido)-2-phenylethyl)piperidine-1-carboxylate], 15.8 nM; that for `COc1ccc([C@H](CC2CCN(C(=O)OC(C)(C)C)CC2)NC(=O)c2ccc(Br)s2)cn1` [Example 29, tert-butyl (S)-4-(2-(5-bromothiophene-2-carboxamido)-2-(6-methoxypyridin-3-yl)ethyl)piperidine-1-carboxylate], 1.58 nM. The result for `COc1ccc([C@H](CC2CCN(C(=O)Oc3ccccc3)CC2)NC(=O)c2ccc(Cl)cc2)cn1` [Example 37, phenyl (S)-4-(2-(4-chlorobenzamido)-2-(6-methoxypyridin-3-yl)ethyl)piperidine-1-carboxylate] reads 2.51 nM. On to `COc1ccc(C(CC2CCN(C(=O)OC(C)(C)C)CC2)NC(=O)c2ccc(Cl)s2)cn1` (stereo not drawn) [Example 15, tert-butyl 4-(2-(5-chlorothiophene-2-carboxamido)-2-(6-methoxypyridin-3-yl)ethyl)piperidine-1-carboxylate], for which the IC50 is 3.98 nM. The result for `C[C@H](CC1CCN(C(=O)OC(C)(C)C)CC1)NC(=O)c1ccc(Cl)s1` [Example 38, tert-butyl (R)-4-(2-(5-chlorothiophene-2-carboxamido)propyl)piperidine-1-carboxylate] reads 5.01 nM. Consider `CCOC(=O)N1CCC(C[C@@H](NC(=O)c2ccc(Cl)s2)C2CC2)CC1` [Example 177, (R)-ethyl 4-(2-(5-chlorothiophene-2-carboxamido)-2-cyclopropylethyl)piperdine-1-carboxylate], for which the IC50 is 126 nM.

Consider `CC(C)(C)OC(=O)N1CCC(CC(NC(=O)c2ccc(F)cc2)c2ccc(=O)n(Cc3ccccc3)c2)CC1` (stereo not drawn) [Example 176, tert-butyl 4-(2-(1-benzyl-6-oxo-1,6-dihydropyridin-3-yl)-2-(4-fluorobenzamido)ethyl)piperidine-1-carboxylate], for which the IC50 is 126 nM. The result for `CC(C)(C)OC(=O)N1CCC(C[C@H](Nc2nc3ccc(Cl)cc3o2)C2CC2)CC1` [Example 148, (S)-tert-butyl 4-(2-((6-chlorobenzo[d]oxazol-2-yl)amino)-2-cyclopropylethyl)piperidine-1-carboxylate] reads 79.4 nM; that for `O=C(NC(CC1CCN(S(=O)(=O)N2CCCCC2)CC1)c1ccccc1)c1ccc(Cl)cc1` (stereo not drawn) [Example 197, 4-chloro-N-(1-phenyl-2-(1-(piperidin-1-ylsulfonyl)piperidin-4-yl)ethyl)benzamide], 251 nM; that for `COC(=O)N1CCC(CC(NC(=O)c2ccc(F)cc2)c2ccccc2)CC1` (stereo not drawn) [Example 173, methyl 4-(2-(4-fluorobenzamido)-2-phenylethyl)piperidine-1-carboxylate], 126 nM. The result for `CCC(CC)c1nc(C(CC2CCN(C(=O)OC(C)(C)C)CC2)NC(=O)c2ccc(Cl)s2)no1` (stereo not drawn) [Example 47, tert-butyl 4-(2-(5-chlorothiophene-2-carboxamido)-2-(5-(pentan-3-yl)-1,2,4-oxadiazol-3-yl)ethyl)piperidine-1-carboxylate] reads 3.98 nM; that for `O=C(NC(CC1CCN(S(=O)(=O)c2ccccc2)CC1)c1ccccc1)c1ccc(Cl)cc1` (stereo not drawn) [Example 215, 4-chloro-N-(1-phenyl-2-(1-(phenylsulfonyl)piperidin-4-yl)ethyl)benzamide], 398 nM; that for `CC(C)OC(=O)N1CCC(CC(NC(=O)c2ccc(Cl)cc2)c2ccccc2)CC1` (stereo not drawn) [Example 103, isopropyl 4-(2-(4-chlorobenzamido)-2-phenylethyl)piperidine-1-carboxylate], 25.1 nM. For the molecule `CC(C)(C)CC(=O)N1CCC(CC(NC(=O)c2ccc(Cl)cc2)c2ccccc2)CC1` (stereo not drawn) [Example 164, 4-chloro-N-(2-(1-(3,3-dimethylbutanoyl)piperidin-4-yl)-1-phenylethyl)benzamide], the IC50 was 100 nM.

For `Cc1ccc(C(=O)NC(CC2CCN(C(=O)C(F)(F)c3ccccn3)CC2)c2ccccc2)s1` (stereo not drawn) [Example 136, N-(2-(1-(2,2-difluoro-2-(pyridin-2-yl)acetyl)piperidin-4-yl)-1-phenylethyl)-5-methylthiophene-2-carboxamide], the IC50 was 50.1 nM. The result for `CC(C)(C)OC(=O)N1CCC(C[C@@H](CCN2CCOCC2)NC(=O)c2ccc(Cl)s2)CC1` [Example 129, (S)-tert-butyl 4-(2-(5-chlorothiophene-2-carboxamido)-4-morpholinobutyl)piperidine-1-carboxylate] reads 39.8 nM; that for `CC(C)(C)OC(=O)N1CCC(CC(NC(=O)c2ccc(C#N)nc2)c2ccccc2)CC1` (stereo not drawn) [Example 189, tert-butyl 4-(2-(6-cyanonicotinamido)-2-phenylethyl)piperidine-1-carboxylate], 200 nM; that for `CC(C)(C)OC(=O)N1CCC(CC(NC(=O)c2ccc(Cl)c(Cl)c2)c2ccccc2)CC1` (stereo not drawn) [Example 205, tert-butyl 4-(2-(3,4-dichlorobenzamido)-2-phenylethyl)piperidine-1-carboxylate], 316 nM.

For the molecule `CC(C)c1nnc(C(CC2CCN(C(=O)OC(C)(C)C)CC2)NC(=O)c2ccc(F)cc2)o1` (stereo not drawn) [Example 223, tert-butyl 4-(2-(4-fluorobenzamido)-2-(5-isopropyl-1,3,4-oxadiazol-2-yl)ethyl)piperidine-1-carboxylate], the IC50 is 501 nM. As to `CC(C)(C)OC(=O)N1CCC(CC(NC(=O)c2ccc(C#N)cc2)c2ccccc2)CC1` (stereo not drawn) [Example 141, tert-butyl 4-(2-(4-cyanobenzamido)-2-phenylethyl)piperidine-1-carboxylate], the IC50 is 63.1 nM. The result for `CC(C)(C)OC(=O)N1CCC(CC(NC(=O)c2ccc(Cl)cc2)c2ccccc2)CC1` (stereo not drawn) [Example 68, tert-butyl 4-(2-(4-chlorobenzamido)-2-phenylethyl)piperidine-1-carboxylate] reads 15.8 nM; that for `CC(C)(C)OC(=O)N1CCC(CC(NC(=O)c2csc(Cl)c2)c2ccccc2)CC1` (stereo not drawn) [Example 128, tert-butyl 4-(2-(5-chlorothiophene-3-carboxamido)-2-phenylethyl)piperidine-1-carboxylate], 39.8 nM.
